Test results published in patent US20210174908A1, “CLASSIFICATION OF TUMOR MICROENVIRONMENTS” (Oncxerna Therapeutics, Inc., priority 2019, published 2021).

Experiments:
gastric cancer = assay: ANN classifier applied to pembrolizumab monotherapy gastric cancer data, threshold / probability score optimization; assay type: in vivo, human
Excerpt: Sensitivity refers to the number of true biomarker responders divided by number of actual responders; specificity refers to the number of true biomarker non-responders divided by number of actual non-responders; PPV refers to the number of true biomarker responders divided by number of total predicted biomarker responders (how well the biomarker-positive rating performs); and NPV—refers to the number of true biomarker non-responders divided by number of total predicted biomarker non-responders (how well the biomarker-negative rating performs).

[1] = test system: patients with gastric cancer; assay: Retrospective population-based TME classification of gastric cancer patients who received pembrolizumab (n = 45), RECIST response; assay type: in vivo, human; details: for Class response rate: population-based classifier
Excerpt: The analysis included 45 gastric cancer tumor samples.
The ORR for all patients was 27% (12/45). […] When the patients were retrospectively analyzed and placed in the Class IA, the response rate was 80%; and in Class IS, the response rate was 18%.

MDSC = details: pre-clinical models; cited from earlier work
[2] = test system: HER2 negative metastatic breast cancer, NSCLC, hepatocellular carcinoma; details: with paclitaxel (HER2 negative metastatic breast cancer), paclitaxel-carboplatin (advanced NSCLC), sorafenib (hepatocellular carcinoma), docetaxel (non-squamous NSCLC); cited from earlier work
solid tumors = assay: Navicixizumab Phase 1A dose-escalation trial, retrospective Z-score and ANN biomarker analysis (n = 39); assay type: in vivo, human; details: for Patients with benefit (SD or better): gynecological cancers
Protocol: A retrospective data analysis of a Phase 1A dose-escalation trial for patients with solid tumors. […] Patients with the above cancers had biopsies collected. Exploratory predictive biomarkers such as DLL4 and VEGF were measured in FFPE tumor specimens, either archived or fresh core needle biopsied at study entry (2 FFPE cores were preferred whenever possible) by immunohistochemistry. […] In the biomarker-positive subset, 48% achieved SD or better.
Model performance is tabulated in TABLE 40; and abbreviations and definitions are as follows; ACC is accuracy; AUC ROC is area under the receiving operator characteristic curve; Sensitivity is the number of true biomarker responders divided by number of actual responders; Specificity is the number of true biomarker non-responders divided by number of actual non-responders; PPV is positive predictive value, i.e., number of true biomarker responders divided by number of total predicted biomarker responders; NPV is negative predictive value, i.e., number of true biomarker non-responders divided by number of total predicted biomarker non-responders.

Molecule: Pembrolizumab
- Biomarker positive Overall Response Rate (ORR) (gastric cancer; Option 1: optimized threshold, both IS and IA groups (10/14)): 70%
- Biomarker-positive ORR (gastric cancer; Option 2: optimized threshold, only the IA subgroup (8/8)): 100%
- Biomarker positive Overall Response Rate (ORR) (gastric cancer; before threshold optimization): 80%
- ORR (CR + PR) or class response rate ([1]; All (ORR), n = 45): 12/45 (27%)
- CR ([1]; All, n = 45, patients/total): 3/45
- PD ([1]; All, n = 45, patients/total): 18/45
- PR ([1]; All, n = 45, patients/total): 9/45
- Class response rate ([1]; Class A): 0%
- Class response rate ([1]; Class IA, CR+PR in class / patients in class): 80%
- Class response rate ([1]; Class ID): 12%
- Class response rate ([1]; Class IS): 18%
- Overall Response Rate (ORR) ([1]; all patients, n = 45, CR+PR divided by total number of patients (RECIST)): 27%
- ORR (CR + PR) or class response rate ([1]; class A): 0/8 (0%)
- CR ([1]; class A, patients/class): 0/8
- PD ([1]; class A, patients/class): 3/8
- PR ([1]; class A, patients/class): 0/8
- ORR (CR + PR) or class response rate ([1]; class IA): 8/10 (80%)
- CR ([1]; class IA, patients/class): 2/10
- PD ([1]; class IA, patients/class): 2/10
- PR ([1]; class IA, patients/class): 6/10
- ORR (CR + PR) or class response rate ([1]; class ID): 2/16 (12%)
- CR ([1]; class ID, patients/class): 0/16
- PD ([1]; class ID, patients/class): 7/16
- PR ([1]; class ID, patients/class): 2/16
- ORR (CR + PR) or class response rate ([1]; class IS): 2/11 (18%)
- CR ([1]; class IS, patients/class): 1/11
- PD ([1]; class IS, patients/class): 6/11
- PR ([1]; class IS, patients/class): 1/11

Molecule: CCCc1nn(C)c2c(=O)[nH]c(-c3cc(S(=O)(=O)N4CCN(C)CC4)ccc3OCC)nc12 [sildenafil]
- Effect on MDSC functions (MDSC): significantly inhibited the MDSC functions

B1: Bavituximab (antibody, V domains shown)
VH: EVQLQQSGPELEKPGASVKLSCKASGYSFTGYNMNWVKQSHGKSLEWIGHIDPYYGDTSYNQKFRGKATLTVDKSSSTAYMQLKSLTSEDSAVYYCVKGGYYGHWYFDVWGAGTTVTVSS
VL: DIQMTQSPSSLSASLGERVSLTCRASQDIGSSLNWLQQGPDGTIKRLIYATSSLDSGVPKRFSGSRSGSDYSLTISSLESEDFVDYYCLQYVSSPPTFGAGTKLELK
notes: PS-targeting antibody
- Anti-tumor effects in clinical trials [2]: Promising anti-tumor effects

B2: Navicixizumab (antibody, chains of the INN, looked up, V domains shown)
VH: QVQLVQSGAEVKKPGASVKISCKASGYSFTAYYIHWVKQAPGQGLEWIGYISNYNRATNYNQKFKGRVTFTTDTSTSTAYMELRSLRSDDTAVYYCARDYDYDVGMDYWGQGTLVTVSS
VL: DIVMTQSPDSLAVSLGERATISCRASESVDNYGISFMKWFQQKPGQPPKLLIYAASNQGSGVPDRFSGSGSGTDFTLTISSLQAEDVAVYYCQQSKEVPWTFGGGTKVEIK
VH2: QVQLVQSGAEVKKPGASVKVSCKASGYTFTNYWMHWVRQAPGQGLEWMGDINPSNGRTSYKEKFKRRVTLSVDKSSSTAYMELSSLRSEDTAVYFCTIHYDDKYYPLMDYWGQGTLVTVSS
VL2: DIVMTQSPDSLAVSLGERATISCRASESVDNYGISFMKWFQQKPGQPPKLLIYAASNQGSGVPDRFSGSGSGTDFTLTISSLQAEDVAVYYCQQSKEVPWTFGGGTKVEIK
notes: anti-VEGF/anti-DLL4 bispecific antibody
- Patients achieving SD (Stable Disease) or better (RECIST 1.1) (solid tumors; all-comers biomarker subset, n = 39): 38%
- Patients achieving SD or better (solid tumors; biomarker-positive subset): 48%
- Patients with benefit (SD or better) (solid tumors; biomarker-negative (n=6)): 0%
- Patients with benefit (SD or better) (solid tumors; biomarker-positive (n=12)): 58%
